The values that follow come from patent US20050009886A1, “1,4-Dihydropyridine derivative with a guaiacoxypropanolamine and/or phenoxypropanolamine moiety” (priority 1998, published 2005).

One assay has as its target T1, β-adrenoreceptor (β1) (Rattus norvegicus, UniProt P18090).
T1 construct: The right and left atria were then separated; from tissue; host or cells: isolated rat right atrium (spontaneously beating) and left atrium (electrically paced)
Put plainly: Isolated right atrium, L-isoproterenol-induced heart rate increase (pA2). Details: species or system Wistar rat. The settings on record: for β1 Value of pA2 Right Atrium: vs L-isoproterenol, Schild plot. Here is the method: The right and left atria were then separated. The spontaneously-beating right atria was clipped on both end by heart shaped clips, where one end was fixed at the bottom of 10 ml of tissue bath made of physiological saline solution, and temperature maintained at 37° C. The other end of the atria was connected to a force transducer, and isometric contractions and beating rate of the right atria were recorded by COULBOURN AT-High-Speed VideoFigure. After the samples were given 250 mg of contractions and reach equilibrium the following experiments were carried out: • (a) β-adrenoceptor blocking action
Cumulative administration interval was when the previous concentration reached its greatest effect, the next concentration would be immediately given.
The equation is as follows: pA2=−Log KB Log(DRADJ−1)=nlog[B]−LogKB [formula]
[B] Test compound concentration in moles • KB: equilibrium dissociation constant • n: value of slope DR: test EC50 divided by control EC50 • CF: EC50 of second or third control groups divided by EC50 of first control group (c) Effect of Compound on the Increase of Spontaneous Beating in Right Atrium Caused by CaCl2

Another assay addresses T2, β2 (Cavia porcellus, UniProt Q8K4Z4).
T2 construct: a portion of tracheal approximately 4 cm long was removed; from tissue; host or cells: isolated trachea of reserpine-pretreated guinea pigs
As to the kind of experiment: Guinea pig's isolated tracheal, L-isoproterenol relaxation of carbachol contraction (pA2). Conditions: for β2 Value of pA2 Tracheal: vs L-isoproterenol, carbachol 10^−6 M contraction. On the procedure: Guinea pigs of weight between 300˜500 gm were used. […] After the guinea pigs were sacrificed, a slit was made along the neck, and a portion of tracheal approximately 4 cm long was removed. […] The two ends of the tracheal were clamped with frog-heart shaped clamps, one end was fixed at the bottom of tissue bath filled with 20 ml of Kreb's solution, maintained at 37° C., while the other end was connected to a force transducer. Through a COULBOURN AT-High-Speed Videograph, long isometric contractions were recorded. After the sample was given 1.5 gm of tension and equilibrated, the following experiments were performed:
Then the tracheal was repeatedly washed with Kreb's solution for 20 minutes and 10−6 M of carbochol was added to cause contraction in the guinea pig's tracheal. […] This is the test group.
(b) Calculation of pA2: similar to the calculation method for isolated right atrium experiment.

T2 sequence (Q8K4Z4 whole entry): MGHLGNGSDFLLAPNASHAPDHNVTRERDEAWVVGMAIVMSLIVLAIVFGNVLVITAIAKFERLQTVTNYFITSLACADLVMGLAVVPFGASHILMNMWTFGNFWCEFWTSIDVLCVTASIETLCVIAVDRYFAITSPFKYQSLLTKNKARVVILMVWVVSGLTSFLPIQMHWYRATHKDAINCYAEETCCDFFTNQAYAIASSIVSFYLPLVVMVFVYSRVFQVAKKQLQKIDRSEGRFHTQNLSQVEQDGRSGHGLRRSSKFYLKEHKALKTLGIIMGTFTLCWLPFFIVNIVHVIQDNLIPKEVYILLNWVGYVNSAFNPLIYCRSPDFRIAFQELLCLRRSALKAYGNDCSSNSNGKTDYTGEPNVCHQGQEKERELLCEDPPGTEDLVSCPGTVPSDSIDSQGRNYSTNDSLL
T1 sequence (P18090 whole entry): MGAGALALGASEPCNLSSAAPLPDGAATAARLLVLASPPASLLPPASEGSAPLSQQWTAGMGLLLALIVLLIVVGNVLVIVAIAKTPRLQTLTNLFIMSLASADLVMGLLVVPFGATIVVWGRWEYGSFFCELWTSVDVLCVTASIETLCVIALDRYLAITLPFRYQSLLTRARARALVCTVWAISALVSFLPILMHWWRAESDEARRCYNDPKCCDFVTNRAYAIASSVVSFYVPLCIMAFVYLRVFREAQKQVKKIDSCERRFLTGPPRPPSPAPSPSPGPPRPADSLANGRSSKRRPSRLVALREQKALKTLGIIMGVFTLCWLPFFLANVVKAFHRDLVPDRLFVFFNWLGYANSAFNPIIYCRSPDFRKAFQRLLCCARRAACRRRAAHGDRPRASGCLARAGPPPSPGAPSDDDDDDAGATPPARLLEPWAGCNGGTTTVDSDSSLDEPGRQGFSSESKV

In the case of `COC(=O)C1=C(C)NC(C)=C(C(=O)OC)C1c1ccc(OCC(O)CNC(C)(C)C)c(OC)c1` (stereo not drawn) [Compound 1], the “Ratio of β1 and Calcium Antagonism” value on β-adrenoreceptor (β1) came out at 0.12. Moreover, the “effect on right atrium relative to tracheal (selectivity ratio of β1 type adrenoceptor)” value at β-adrenoreceptor (β1) (from average pA2 difference between right atrium and tracheal) was found to be 1.32 ×. The same compound showed a β1/β2 at β-adrenoreceptor (β1) (from pA2 difference right atrium vs tracheal) of 1.32. The “block of heart rate increment effect of L-isoproterenol” value at β-adrenoreceptor (β1) (right atrium, 10^−6, 10^−5, and 10^−6 M as printed) is “could competitively block”. The “β1 Right Atrium (Slope)” value on β-adrenoreceptor (β1) (slope of Schild regression) was “(0.94 ± 0.18)”. For the same compound, the “β1 Value of pA2 Right Atrium” value on β-adrenoreceptor (β1) is given as 7.21 ± 0.32; on β-adrenoreceptor (β1) (listed as compound 1) it was 7.21±0.32. On β-adrenoreceptor (β1) (β1:β2), the “selectivity on the type of β-adrenoceptor” value is recorded as “non-selective”. Also, at β2 (10^−6, 10^−5, and 10^−6 M as printed), the “block of the tracheal effect of L-isoproterenol” value is “could competitively block”. For the same compound, the “β2 Tracheal (slope)” value on β2 (slope of Schild regression) is listed as “(0.84 ± 0.09)”. For the same compound, the figures for the “β2 Value of pA2 Tracheal” value at β2 and on β2 (listed as compound 1) were 7.09 ± 0.54 and 7.09±0.54, respectively.
